Values of other authors, collected in patent US6379615B1, “Methods of sterilizing articles” (St. Jude Medical, Inc., priority 2000, dated 2002).

Settings: ethanol at about 70 percent by weight; cited from earlier work

Compound: CCO [ethanol]
- bactericidal effect of ethanol alone: only mildly bactericidal
